Values quoted from earlier work in patent publication US7718380B2 (Abbott Laboratories, priority 2005, dated 2010).

**Q.** For `C=CC[C@@H]1/C=C(\C)C[C@H](C)C[C@H](OC)[C@H]2O[C@@](O)(C(=O)C(=O)N3CCCC[C@H]3C(=O)O[C@H](/C(C)=C/[C@@H]3CC[C@@H](O)[C@H](OC)C3)[C@H](C)[C@@H](O)CC1=O)[C@H](C)C[C@@H]2OC` [Tacrolimus], which “solubility in aqueous solutions” value is on record?
**A.** limited solubility
